Data published in patent US20080085246A1, “Use of Eugenol Acetate as an Agent Against Bad Breath” (SYMRISE GMBH & CO. KG, priority 2004, published 2008).

What was measured:
Escherichia coli = assay: Minimum inhibitory concentration, series dilution test; type: cell-based
Method: (§1) The minimum inhibitory concentration (MIC) of eugenol acetate was determined in the series dilution test against various bacteria.

Fusobacterium nucleatum = assay: as above; type: cell-based
Method: as §1

Porphyromonas gingivalis = assay: as above; type: cell-based
Method: as §1

Prevotella intermedia = assay: as above; type: cell-based
Method: as §1

Pseudomonas aeruginosa = assay: as above; type: cell-based
Method: as §1

Staphylococcus aureus = assay: as above; type: cell-based
Method: as §1

Streptococcus mutans = assay: as above; type: cell-based
Method: as §1

[1] = test system: total number of germs in the oral saliva samples; assay: Total number of germs in oral saliva samples; type: cell-based; details: 1,000 ppm
[2] = test system: liquid medium inoculated with fresh morning saliva; assay: In vitro test for reduction of bad breath (inoculated medium smelled by a panel of testers)

C=CCc1ccc(OC(C)=O)c(OC)c1 [eugenol acetate, 4-allyl-2-methoxyphenyl acetate]
MIC (Escherichia coli): > 1000 µg/mL
Type (Escherichia coli): no action up to 1,000 ppm
MIC (Fusobacterium nucleatum): 500 µg/mL
Type (Fusobacterium nucleatum; 500 ppm): bactericidal action
MIC (Porphyromonas gingivalis): 1000 µg/mL
MIC (Prevotella intermedia): 500 µg/mL
Type (Prevotella intermedia; 500 ppm): bactericidal action
MIC (Pseudomonas aeruginosa): > 1000 µg/mL
Type (Pseudomonas aeruginosa): no action up to 1,000 ppm
MIC (Staphylococcus aureus): > 1000 µg/mL
Type (Staphylococcus aureus): no action up to 1,000 ppm
MIC (Streptococcus mutans): > 1000 µg/mL
Type (Streptococcus mutans): no action up to 1,000 ppm
reduction in respect of the total number of germs [1]: no significant reduction
smell after the incubation time ([2]; 0.01% added to inoculated samples, 37 °C for some days): no smell
smell at sensory evaluation ([2]; 0.05% added to the inoculated medium only one hour before the sensory evaluation): unpleasant mixed smell of bad breath and a weak eugenol acetate note
minimum active concentration ([2]; inoculated samples, no smell after incubation): 0.01%
smell after the incubation time ([2]; significantly lower concentrations than 0.01%): a changed intrinsic smell or a mixed smell was perceptible in some cases
